Experimental data published in patent publication US8999982B2, “Pharmaceutically active compounds as Axl inhibitors” (Lead Discovery Center GmbH, priority 2010, dated 2015).
Blank lines part the entries; values can stand above or below the compound they belong to.

What was measured:
Axl [1] = target: T1, Axl (Homo sapiens (Human), UniProt P30530); assay: Axl binding assay
Protocol: Binding of the tracer to the kinase is detected using an EU-labeled anti-tag antibody. […] Binding of an inhibitor to the kinase competes for binding with the tracer, resulting in a loss of FRET-signal. At first a compound according to formula (I) was diluted in 20 mM Hepes pH 8.0, 1 mM DTT, 10 mM MgCl2 and 0.01% Brij35.

Axl [2] = target: T1, Axl; assay: Cellular Axl phosphorylation assay; format: cell-based; details: HEK293 cells transfected with Axl cDNA, 1 hour incubation
Protocol: 3. Cellular Axl Phosphorylation Assay:
HEK293 embryonal kidney fibroblasts were transfected in 96 wells with a plasmid containing Axl cDNA. As transfection reagent Superfect (Qiagen) was used. Transfection of the sole vector backbone served as negative control of Axl expression. After overnight incubation the cellular supernatant was replaced with fresh medium. On the following day the Axl-expressing cells were incubated for 1 hour with a compound according to formula (I) at the suitable concentrations. […] The mesoscale technology was used for quantification.

T1 sequence (P30530 26-894): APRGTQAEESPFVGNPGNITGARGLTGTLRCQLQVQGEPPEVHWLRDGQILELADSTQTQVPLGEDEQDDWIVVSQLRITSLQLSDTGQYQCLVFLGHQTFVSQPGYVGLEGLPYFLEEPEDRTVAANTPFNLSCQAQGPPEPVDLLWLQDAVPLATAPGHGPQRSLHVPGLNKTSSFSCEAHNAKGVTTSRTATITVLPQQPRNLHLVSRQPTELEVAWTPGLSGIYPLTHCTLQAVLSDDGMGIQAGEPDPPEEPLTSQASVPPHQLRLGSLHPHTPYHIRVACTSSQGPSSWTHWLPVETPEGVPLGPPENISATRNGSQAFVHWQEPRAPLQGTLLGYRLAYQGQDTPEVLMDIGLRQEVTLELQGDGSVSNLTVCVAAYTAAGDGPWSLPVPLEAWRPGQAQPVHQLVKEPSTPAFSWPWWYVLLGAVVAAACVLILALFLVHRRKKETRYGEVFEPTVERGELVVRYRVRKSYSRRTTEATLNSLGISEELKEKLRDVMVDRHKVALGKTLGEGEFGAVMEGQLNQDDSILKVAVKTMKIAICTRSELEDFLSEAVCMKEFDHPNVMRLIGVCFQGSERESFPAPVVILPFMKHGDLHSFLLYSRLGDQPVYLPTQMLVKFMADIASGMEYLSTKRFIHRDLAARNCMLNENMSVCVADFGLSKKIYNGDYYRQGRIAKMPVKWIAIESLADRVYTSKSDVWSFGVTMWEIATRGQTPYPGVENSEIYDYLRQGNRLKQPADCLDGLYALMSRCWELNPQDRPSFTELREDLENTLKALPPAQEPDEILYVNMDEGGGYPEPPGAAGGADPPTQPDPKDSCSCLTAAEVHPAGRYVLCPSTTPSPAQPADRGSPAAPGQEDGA

Structure (SMILES): COc1cc2nccc(Oc3ccc(NC(=O)c4nn(-c5ccc(F)cc5)cc4OCCCN(C)C)cc3F)c2cc1OC [Example 20, N-[4-[(6,7-dimethoxy-4-quinolyl)oxy]-3-fluoro-phenyl]-4-(3-dimethylaminopropoxy)-1-(4-fluorophenyl)pyrazole-3-carboxamide]
IC50 (Axl [1]): 0.5 to 5 µM | IC50 (Axl [2]): 0.5 to 5 µM

Structure (SMILES): COc1cc2nccc(Oc3ccc(NC(=O)c4nn(-c5ccc(F)cc5)cc4OC(C)C)cc3Cl)c2cc1OC [Example 33, N-[3-chloro-4-[(6,7-dimethoxy-4-quinolyl)oxy]phenyl]-1-(4-fluorophenyl)-4-isopropoxy-pyrazole-3-carboxamide]
IC50 (Axl [1]): < 0.5 µM | IC50 (Axl [2]): < 0.5 µM

Structure (SMILES): COc1cc2nccc(Oc3ccc(NC(=O)c4nn(-c5ccc(F)cc5)cc4OCC4CC4)cc3Cl)c2cc1OC [Example 34, N-[3-chloro-4-[(6,7-dimethoxy-4-quinolyl)oxy]phenyl]-4-(cyclopropylmethoxy)-1-(4-fluorophenyl)pyrazole-3-carboxamide]
IC50 (Axl [1]): < 0.5 µM | IC50 (Axl [2]): < 0.5 µM

Structure (SMILES): CCOc1cn(-c2ccc(F)cc2C)nc1C(=O)Nc1ccc(Oc2ccnc3cc(OC)c(OC)cc23)c(Cl)c1 [Example 35, N-[3-chloro-4-[(6,7-dimethoxy-4-quinolyl)oxy]phenyl]-4-ethoxy-1-(4-fluoro-2-methyl-phenyl)pyrazole-3-carboxamide]
IC50 (Axl [1]): < 0.5 µM | IC50 (Axl [2]): < 0.5 µM

Structure (SMILES): COc1cc2nccc(Oc3ccc(NC(=O)c4nn(-c5ccc(F)cc5)cc4CCN(C)C)cc3F)c2cc1OC [Example 36, N-(4-((6,7-dimethoxyquinolin-4-yl)oxy)-3-fluorophenyl)-4-(2-(dimethylamino)ethyl)-1-(4-fluorophenyl)-1H-pyrazole-3-carboxamide]
IC50 (Axl [1]): < 0.5 µM | IC50 (Axl [2]): < 0.5 µM

Structure (SMILES): CCOc1cn(-c2ccc(F)cc2CCN(C)C)nc1C(=O)Nc1ccc(Oc2ccnc3cc(OC)c(OC)cc23)c(F)c1 [Example 37, N-[4-[(6,7-dimethoxy-4-quinolyl)oxy]-3-fluoro-phenyl]-1-[2-(2-dimethylaminoethyl)-4-fluoro-phenyl]-4-ethoxy-pyrazole-3-carboxamide]
IC50 (Axl [1]): < 0.5 µM | IC50 (Axl [2]): < 0.5 µM

Structure (SMILES): COc1cc2c(Oc3ccc(NC(=O)c4csc(-c5ccccc5)n4)cc3F)ccnc2cc1OCCCN1CCOCC1 [Example 38, N-[3-fluoro-4-[[6-methoxy-7-(3-morpholinopropoxy)-4-quinolyl]oxy]phenyl]-2-phenyl-thiazole-4-carboxamide]
IC50 (Axl [1]): < 0.5 µM | IC50 (Axl [2]): < 0.5 µM

Structure (SMILES): COc1cc2c(Oc3ccc(NC(=O)c4nn(C)cc4Br)cc3F)ccnc2cc1OCCCN1CCOCC1 [Example 39, 4-bromo-N-[3-fluoro-4-[[6-methoxy-7-(3-morpholinopropoxy)-4-quinolyl]oxy]phenyl]-1-methyl-pyrazole-3-carboxamide]
IC50 (Axl [1]): 0.5 to 5 µM | IC50 (Axl [2]): < 0.5 µM

Structure (SMILES): COc1cc2c(Oc3ccc(NC(=O)c4ccn(C)n4)cc3F)ccnc2cc1OCCCN1CCOCC1 [Example 40, N-[3-fluoro-4-[[6-methoxy-7-(3-morpholinopropoxy)-4-quinolyl]oxy]phenyl]-1-methyl-pyrazole-3-carboxamide]
IC50 (Axl [1]): 0.5 to 5 µM | IC50 (Axl [2]): < 0.5 µM

Structure (SMILES): COc1cc2c(Oc3ccc(NC(=O)c4cc(C)n(C(C)(C)C)n4)cc3F)ccnc2cc1OCCCN1CCOCC1 [Example 41, 1-tert-butyl-N-[3-fluoro-4-[[6-methoxy-7-(3-morpholinopropoxy)-4-quinolyl]oxy]phenyl]-5-methyl-pyrazole-3-carboxamide]
IC50 (Axl [1]): < 0.5 µM | IC50 (Axl [2]): < 0.5 µM

Structure (SMILES): COc1cc2c(Oc3ccc(NC(=O)c4cc(C)n(C)n4)cc3F)ccnc2cc1OCCCN1CCOCC1 [Example 42, N-[3-fluoro-4-[[6-methoxy-7-(3-morpholinopropoxy)-4-quinolyl]oxy]phenyl]-1,5-dimethyl-pyrazole-3-carboxamide]
IC50 (Axl [1]): < 0.5 µM | IC50 (Axl [2]): < 0.5 µM

Structure (SMILES): CCOc1cn(-c2ccc(F)cc2C)nc1C(=O)Nc1ccc(Oc2ccnc3cc(OCCCN4CCOCC4)c(OC)cc23)c(F)c1 [Example 43, 4-ethoxy-N-[3-fluoro-4-[[6-methoxy-7-(3-morpholinopropoxy)-4-quinolyl]oxy]phenyl]-1-(4-fluoro-2-methyl-phenyl)pyrazole-3-carboxamide]
IC50 (Axl [1]): < 0.5 µM | IC50 (Axl [2]): < 0.5 µM

Structure (SMILES): COc1cc2c(Oc3ccc(NC(=O)c4nn(-c5ccc(F)cc5)cc4OC)cc3F)ccnc2cc1OCCCN1CCOCC1 [Example 44, N-[3-fluoro-4-[[6-methoxy-7-(3-morpholinopropoxy)-4-quinolyl]oxy]phenyl]-1-(4-fluorophenyl)-4-methoxy-pyrazole-3-carboxamide]
IC50 (Axl [1]): < 0.5 µM | IC50 (Axl [2]): < 0.5 µM

Structure (SMILES): COc1cc2c(Oc3ccc(NC(=O)c4nn(-c5ccc(F)cc5)cc4OC(C)C)cc3F)ccnc2cc1OCCCN1CCOCC1 [Example 45, N-[3-fluoro-4-[[6-methoxy-7-(3-morpholinopropoxy)-4-quinolyl]oxy]phenyl]-1-(4-fluorophenyl)-4-isopropoxy-pyrazole-3-carboxamide]
IC50 (Axl [1]): < 0.5 µM | IC50 (Axl [2]): < 0.5 µM

Structure (SMILES): COc1cc2c(Oc3ccc(NC(=O)c4nn(-c5ccc(F)cc5)cc4OCC4CC4)cc3F)ccnc2cc1OCCCN1CCOCC1 [Example 46, 4-(cyclopropylmethoxy)-N-[3-fluoro-4-[[6-methoxy-7-(3-morpholinopropoxy)-4-quinolyl]oxy]phenyl]-1-(4-fluorophenyl)pyrazole-3-carboxamide]
IC50 (Axl [1]): < 0.5 µM | IC50 (Axl [2]): < 0.5 µM

More lines, now with the values ahead:

IC50 (Axl [1]): < 0.5 µM | IC50 (Axl [2]): < 0.5 µM
Structure (SMILES): COc1cc2nccc(Oc3ccc(NC(=O)c4nn(-c5ccc(F)cc5)cc4OCCN(C)C)cc3F)c2cc1OC [Example 19, N-[4-[(6,7-dimethoxy-4-quinolyl)oxy]-3-fluoro-phenyl]-4-(2-dimethylaminoethoxy)-1-(4-fluorophenyl)pyrazole-3-carboxamide]

IC50 (Axl [1]): < 0.5 µM | IC50 (Axl [2]): < 0.5 µM
Structure (SMILES): COc1cc2nccc(Oc3ccc(NC(=O)c4nn(-c5ccc(F)cc5)cc4OC(C)C)cc3F)c2cc1OC [Example 21, N-[4-[(6,7-dimethoxy-4-quinolyl)oxy]-3-fluoro-phenyl]-1-(4-fluorophenyl)-4-isopropoxy-pyrazole-3-carboxamide]

IC50 (Axl [1]): < 0.5 µM | IC50 (Axl [2]): < 0.5 µM
Structure (SMILES): CCOc1cn(-c2ccc(F)cc2Cl)nc1C(=O)Nc1ccc(Oc2ccnc3cc(OC)c(OC)cc23)c(F)c1 [Example 23, 1-(2-chloro-4-fluoro-phenyl)-N-[4-[(6,7-dimethoxy-4-quinolyl)oxy]-3-fluoro-phenyl]-4-ethoxy-pyrazole-3-carboxamide]

IC50 (Axl [1]): < 0.5 µM | IC50 (Axl [2]): < 0.5 µM
Structure (SMILES): CCOc1cn(-c2ccc(F)cc2)nc1C(=O)Nc1ccc(Oc2ccnc3cc(OC)c(OC)cc23)cc1 [Example 24, N-[4-[(6,7-dimethoxy-4-quinolyl)oxy]phenyl]-4-ethoxy-1-(4-fluorophenyl)pyrazole-3-carboxamide]

IC50 (Axl [1]): < 0.5 µM | IC50 (Axl [2]): < 0.5 µM
Structure (SMILES): COc1cc2nccc(Oc3ccc(NC(=O)c4nn(-c5ccc(F)cc5)cc4OC(C)C)cc3)c2cc1OC [Example 25, N-[4-[(6,7-dimethoxy-4-quinolyl)oxy]phenyl]-1-(4-fluorophenyl)-4-isopropoxy-pyrazole-3-carboxamide]

IC50 (Axl [1]): < 0.5 µM | IC50 (Axl [2]): < 0.5 µM
Structure (SMILES): COc1cc2nccc(Oc3ccc(NC(=O)c4nn(-c5ccc(F)cc5)cc4OCC4CC4)cc3)c2cc1OC [Example 26, 4-(cyclopropylmethoxy)-N-[4-[(6,7-dimethoxy-4-quinolyl)oxy]phenyl]-1-(4-fluorophenyl)pyrazole-3-carboxamide]

IC50 (Axl [1]): < 0.5 µM | IC50 (Axl [2]): < 0.5 µM
Structure (SMILES): CCOc1cn(-c2ccc(F)cc2C)nc1C(=O)Nc1ccc(Oc2ccnc3cc(OC)c(OC)cc23)cc1 [Example 27, N-[4-[(6,7-dimethoxy-4-quinolyl)oxy]phenyl]-4-ethoxy-1-(4-fluoro-2-methyl-phenyl)pyrazole-3-carboxamide]

IC50 (Axl [1]): < 0.5 µM | IC50 (Axl [2]): < 0.5 µM
Structure (SMILES): CCOc1cn(-c2ccc(F)cc2)nc1C(=O)Nc1ccc(Oc2ccnc3cc(OC)c(OC)cc23)c(C)c1 [Example 28, N-[4-[(6,7-dimethoxy-4-quinolyl)oxy]-3-methyl-phenyl]-4-ethoxy-1-(4-fluorophenyl)pyrazole-3-carboxamide]

IC50 (Axl [1]): < 0.5 µM | IC50 (Axl [2]): < 0.5 µM
Structure (SMILES): COc1cc2nccc(Oc3ccc(NC(=O)c4nn(-c5ccc(F)cc5)cc4OC(C)C)cc3C)c2cc1OC [Example 29, N-[4-[(6,7-dimethoxy-4-quinolyl)oxy]-3-methyl-phenyl]-1-(4-fluorophenyl)-4-isopropoxy-pyrazole-3-carboxamide]

IC50 (Axl [1]): < 0.5 µM | IC50 (Axl [2]): < 0.5 µM
Structure (SMILES): COc1cc2nccc(Oc3ccc(NC(=O)c4nn(-c5ccc(F)cc5)cc4OCC4CC4)cc3C)c2cc1OC [Example 30, 4-(cyclopropylmethoxy)-N-[4-[(6,7-dimethoxy-4-quinolyl)oxy]-3-methyl-phenyl]-1-(4-fluorophenyl)pyrazole-3-carboxamide]

IC50 (Axl [1]): < 0.5 µM | IC50 (Axl [2]): < 0.5 µM
Structure (SMILES): CCOc1cn(-c2ccc(F)cc2C)nc1C(=O)Nc1ccc(Oc2ccnc3cc(OC)c(OC)cc23)c(C)c1 [Example 31, N-[4-[(6,7-dimethoxy-4-quinolyl)oxy]-3-methyl-phenyl]-4-ethoxy-1-(4-fluoro-2-methyl-phenyl)pyrazole-3-carboxamide]

IC50 (Axl [1]): < 0.5 µM | IC50 (Axl [2]): < 0.5 µM
Structure (SMILES): CCOc1cn(-c2ccc(F)cc2)nc1C(=O)Nc1ccc(Oc2ccnc3cc(OC)c(OC)cc23)c(Cl)c1 [Example 32, N-[3-chloro-4-[(6,7-dimethoxy-4-quinolyl)oxy]phenyl]-4-ethoxy-1-(4-fluorophenyl)pyrazole-3-carboxamide]
